From ChEMBL document CHEMBL1201862, “PubChem BioAssay data set” (2004)
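Briefly, cells in 96-well plates were exposed to five compound concentrations for 48 h, and endpoints were estimated by linear interpolation. Here, GI50 denotes the concentration required for 50% inhibition of growth.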 The source made the active and inactive calls. No stated cut-off is given here; in the data, active = GI50 up to about 1.1 µM and inactive = higher.

Tests used:
Assay in all cases: NCI-60 cell line screen, 48 h
A498 = tested on: A498
MDA-MB-231 = tested on: MDA-MB-231
SK-MEL-28 = tested on: SK-MEL-28
HT-29 = tested on: HT-29
MDA-N = tested on: MDA-N
SNB-19 = tested on: SNB-19
RPMI-8226 = tested on: RPMI-8226
XF498 = tested on: XF498
NCI-H460 = tested on: NCI-H460
DMS-273 = tested on: DMS-273
HOP-62 = tested on: HOP-62
K562 = tested on: K562
UO-31 = tested on: UO-31
HOP-18 = tested on: HOP-18
SK-OV-3 = tested on: SK-OV-3
CCRF-CEM = tested on: CCRF-CEM
HCT-116 = tested on: HCT-116
EKVX = tested on: EKVX
SF-539 = tested on: SF-539
SR = tested on: SR

| Structure (SMILES) | GI50 (A498) | GI50 (MDA-MB-231) | GI50 (SK-MEL-28) | GI50 (HT-29) | GI50 (MDA-N) | GI50 (SNB-19) | GI50 (RPMI-8226) | GI50 (XF498) | GI50 (NCI-H460) | GI50 (DMS-273) | GI50 (HOP-62) | GI50 (K562) | GI50 (UO-31) | GI50 (HOP-18) | GI50 (SK-OV-3) | GI50 (CCRF-CEM) | GI50 (HCT-116) | GI50 (EKVX) | GI50 (SF-539) | GI50 (SR) |
| --- | --- | --- | --- | --- | --- | --- | --- | --- | --- | --- | --- | --- | --- | --- | --- | --- | --- | --- | --- | --- |
| C1CN1c1nc(N2CC2)nc(N2CC2)n1 | 9.95 µM (inactive) | 20.2 µM (inactive) | 14.3 µM (inactive) | 13.2 µM (inactive) | 12.1 µM (inactive) | 6.65 µM (inactive) | 12.5 µM (inactive) | 4.89 µM (inactive) | 0.41 µM (active) | 1.31 µM (inactive) | 1.97 µM (inactive) | 10.4 µM (inactive) | 7.36 µM (inactive) | 17.5 µM (inactive) | 8.87 µM (inactive) | 0.82 µM (active) | 8.55 µM (inactive) | 19.5 µM (inactive) | 2.68 µM (inactive) | 0.5 µM (active) |
| CCCCCCCCCCCC(=O)OC[C@@H](C[As](=O)(O)O)OC(=O)CCCCCCCCCCC | 11.9 µM (inactive) | 3.52 µM (inactive) | 4.54 µM (inactive) | 9.82 µM (inactive) | 4.29 µM (inactive) | 3.07 µM (inactive) | 6.87 µM (inactive) | 14.2 µM (inactive) | 3.61 µM (inactive) | 3.26 µM (inactive) | 9.95 µM (inactive) | 5.75 µM (inactive) | 14.8 µM (inactive) | 14.5 µM (inactive) | 12.4 µM (inactive) | 16.2 µM (inactive) | 8.45 µM (inactive) | 13.7 µM (inactive) | 12.6 µM (inactive) | 7.36 µM (inactive) |
| COC(=O)c1cccc2cccc(C(=O)Nc3ccc(C)cc3C)c12 | 33 µM (inactive) | – | > 100 µM (inactive) | 91 µM (inactive) | – | > 100 µM (inactive) | 22.5 µM (inactive) | 54.6 µM (inactive) | > 100 µM (inactive) | > 100 µM (inactive) | > 100 µM (inactive) | > 100 µM (inactive) | > 100 µM (inactive) | 65.5 µM (inactive) | > 100 µM (inactive) | 3.72 µM (inactive) | > 100 µM (inactive) | > 100 µM (inactive) | 96.4 µM (inactive) | 37.6 µM (inactive) |
| O=c1cc(-c2cccnc2)[nH]c2cc3c(cc12)OCO3 | 10.7 µM (inactive) | 29.6 µM (inactive) | 6.18 µM (inactive) | 6.59 µM (inactive) | 2.29 µM (inactive) | 13 µM (inactive) | 34 µM (inactive) | 7.36 µM (inactive) | 10.8 µM (inactive) | 4.13 µM (inactive) | 7.5 µM (inactive) | 5.07 µM (inactive) | 44.4 µM (inactive) | 1.17 µM (inactive) | > 20.9 µM (inactive) | 6.65 µM (inactive) | 4.8 µM (inactive) | – | 5.58 µM (inactive) | – |
| CCCCCCC(O)C/C=C/CCCCCC/C(C(=O)OC)=C(/O)C(=O)OCC (centres undefined) | > 100 µM (inactive) | – | > 100 µM (inactive) | > 100 µM (inactive) | – | > 100 µM (inactive) | > 100 µM (inactive) | > 100 µM (inactive) | > 100 µM (inactive) | > 100 µM (inactive) | > 100 µM (inactive) | 97.7 µM (inactive) | > 100 µM (inactive) | > 100 µM (inactive) | > 100 µM (inactive) | > 100 µM (inactive) | > 100 µM (inactive) | > 100 µM (inactive) | > 100 µM (inactive) | 7.93 µM (inactive) |
